Data as given in patent publication US20150111934A1, “CRYSTALLINE FORMS OF AN ADRENERGIC AGONIST” (DIPHARMA FRANCIS S.R.L., priority 2013, published 2015).

Legend:
[1] = cited from earlier work; for physical stability of the crystalline form: prior art forms of U.S. Pat. No. 7,342,117
physchem = details: 25 °C, water

Cl.Cl.Nc1nc(CC(=O)Nc2ccc(CCNCC(O)c3ccccc3)cc2)cs1 (stereo not drawn)
hygroscopicity and stability of the crystalline salt ([1]; as demonstrated in U.S. Pat. No. 7,342,117): highly hygroscopic and unstable

Nc1nc(CC(=O)Nc2ccc(CCNC[C@H](O)c3ccccc3)cc2)cs1 [Crystalline form α of Mirabegron, (R)-2-(2-Aminothiazol-4-yl)-4′-[2-[(2-hydroxy-2-phenylethyl)amino]ethyl]acetanilide]
physical stability of the crystalline form [1]: stable solid form | solubility in water (in words) (solubility in water): practically insoluble in water

CC(=O)O.Nc1nc(CC(=O)Nc2ccc(CCNC[C@H](O)c3ccccc3)cc2)cs1 [Mirabegron acetate salt, 2-(2-amino-1,3-thiazol-4-yl)-N-[4-(2-{[(2R)-2-hydroxy-2-phenylethyl]amino}ethyl)phenyl]acetamide acetate salt]
solubility (physchem): ~100 mg/mL

Nc1nc(CC(=O)Nc2ccc(CCNC[C@H](O)c3ccccc3)cc2)cs1 [Mirabegron base, (R)-2-(2-Aminothiazol-4-yl)-4′-[2-[(2-hydroxy-2-phenylethyl)amino]ethyl]acetanilide]
solubility in water (in words) (solubility in water): almost wholly insoluble in water

Nc1nc(CC(=O)Nc2ccc(CCNC[C@H](O)c3ccccc3)cc2)cs1 [form β, (R)-2-(2-Aminothiazol-4-yl)-4′-[2-[(2-hydroxy-2-phenylethyl)amino]ethyl]acetanilide]
physical stability of the crystalline form [1]: metastable polymorph
